Values of other authors as cited in patent US20190021988A1, “ENHANCED TRANSDERMAL DELIVERY OF ACTIVE AGENTS” (priority 2016, published 2019).

System: desmosome-induced tight junctions between corneocytes

TD-1: skin penetrating peptide with the amino acid sequence ACSSSPSKHCG, disclosed in WO2007/035474
time until cell gaps are restored after treatment (after treatment): 1 h
space between cells after topical application (change from about 30 nm, in 30 minutes from topical application): about 466 nm
